# Reference: ChEMBL document CHEMBL1201862, “PubChem BioAssay data set” (2004)
#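 In this assay, cells in 96-well plates receive the compound at five concentrations for 48 hours. Endpoints are linearly interpolated between the surrounding concentrations. Abbreviation: GI50, concentration required for 50% inhibition of growth.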 Calls of active or inactive are those of the source. Rule as the data show it: active = GI50 up to about 1.1 µM and inactive = higher.
# What was measured:
# Test in all cases: NCI tumour cell line growth inhibition, 48 h
# CCRF-CEM = system: CCRF-CEM
# NCI-H23 = system: NCI-H23
# KM12 = system: KM12
# HCT-15 = system: HCT-15
# UO-31 = system: UO-31
# SF-268 = system: SF-268
# U-251 = system: U-251
# A549 = system: A549
# K562 = system: K562
# A498 = system: A498
# SR = system: SR
# EKVX = system: EKVX
# OVCAR-3 = system: OVCAR-3
# RPMI-8226 = system: RPMI-8226
# HCC 2998 = system: HCC 2998
# SNB-75 = system: SNB-75
# Malme-3M = system: Malme-3M
# COLO 205 = system: COLO 205
# SW-620 = system: SW-620
# SNB-19 = system: SNB-19
Structure (SMILES),GI50 (CCRF-CEM),GI50 (NCI-H23),GI50 (KM12),GI50 (HCT-15) [µM],GI50 (UO-31),GI50 (SF-268),GI50 (U-251),GI50 (A549),GI50 (K562),GI50 (A498),GI50 (SR),GI50 (EKVX),GI50 (OVCAR-3),GI50 (RPMI-8226),GI50 (HCC 2998),GI50 (SNB-75),GI50 (Malme-3M),GI50 (COLO 205),GI50 (SW-620),GI50 (SNB-19)
Cc1cc(C)c(-n2[nH]c(=O)n(C)c2=O)c(C)c1,> 100 µM (inactive),> 100 µM (inactive),> 100 µM (inactive),> 100,> 100 µM (inactive),> 100 µM (inactive),> 100 µM (inactive),> 100 µM (inactive),> 100 µM (inactive),> 100 µM (inactive),> 100 µM (inactive),> 100 µM (inactive),> 100 µM (inactive),> 100 µM (inactive),> 100 µM (inactive),> 100 µM (inactive),> 100 µM (inactive),> 100 µM (inactive),> 100 µM (inactive),> 100 µM (inactive)
Nc1nnc(O)c2c1c(I)cn2C1OC(CO)C(O)C1O (stereo not given),0.129 µM (active),0.5 µM (active),0.393 µM (active),0.188,1.52 µM (inactive),2.21 µM (inactive),1.09 µM (active),2.07 µM (inactive),0.75 µM (active),5.56 µM (inactive),0.0466 µM (active),1.3 µM (inactive),0.0745 µM (active),0.35 µM (active),0.208 µM (active),0.718 µM (active),0.778 µM (active),0.708 µM (active),0.0904 µM (active),7.93 µM (inactive)
